The test system of series [1] is Hendra virus. It is filed as cell-based.
Series [2] concerns HeLa cells.

Residues, ends and D or L forms follow the SMILES beside them. *: point of attachment. Cbz = O=C(OCc1ccccc1)*

In the case of `CC(C)C[C@@H](C=O)NC(=O)[C@H](CC(C)C)NC(=O)[C@H](CC(C)C)NC(=O)OCc1ccccc1` [MG-132] (Cbz-Leu-Leu-Leu-aldehyde), the “Hendra virus replication (HeV titres)” value in series [1] was “significantly reduced”. Further, the HeLa cell viability entry in series [2] is “not adversely impacting HeLa cell viability”.
Taken in the same sequence, the figures for `Cc1ccc(S(=O)(=O)/C=C/C#N)cc1` [Bay11-7082] were “reduced (not significantly)” and “not adversely impacting HeLa cell viability”.

For the origin of these results see patent US9657360B2, “Detection of viral infection” (priority 2011, dated 2017).
